Measurements reported in the supplement of paper PMC10307832.

Key:
Experiment in all cases: relative viability (nuclei count vs DMSO), 5 days (fraction); higher = more cells survive
[1] = compound: O=C(CCCCCCNC(=O)c1cnc(N(c2ccccc2)c2ccccc2)nc1)NO [Ricolinostat] + C[C@@H](Oc1cc(-c2cnn(C3CCNCC3)c2)cnc1N)c1c(Cl)ccc(F)c1Cl [Crizotinib] (partner 1 µM)
Procedure, shortened: (§1)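 Cells from lung cancer lines were seeded into 1536-well plates and, one day later, dosed by pin tool. Treatments were either a single drug or a fixed dose of an anchor drug with five library-drug doses (not always all listed) in √10 steps. After 5 days, nuclei were stained in a one-step fixation (final 0.05% Triton X-100, 1% formaldehyde, 1 ug/ml Hoechst) and counted on 4× images, and relative viability is the treated-to-vehicle nuclei ratio, as the median of duplicate plates.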

[2] = compound: O=C(CCCCCCNC(=O)c1cnc(N(c2ccccc2)c2ccccc2)nc1)NO [Ricolinostat] + Cc1cc(Nc2cc(N3CCN(C)CC3)nc(Sc3ccc(NC(=O)C4CC4)cc3)n2)n[nH]1 [Tozasertib] (partner 0.1 µM)
Procedure, shortened: as §1

[3] = compound: O=C(CCCCCCNC(=O)c1cnc(N(c2ccccc2)c2ccccc2)nc1)NO [Ricolinostat] + COc1cc2c(Oc3ccc(NC(=O)C4(C(=O)Nc5ccc(F)cc5)CC4)cc3F)ccnc2cc1OCCCN1CCOCC1 [Foretinib] (partner 0.25 µM)
Procedure, shortened: as §1

[4] = compound: O=C(CCCCCCNC(=O)c1cnc(N(c2ccccc2)c2ccccc2)nc1)NO [Ricolinostat] + Cc1nc(NC(=O)N2CCC[C@H]2C(N)=O)sc1-c1ccnc(C(C)(C)C(F)(F)F)c1 [Alpelisib] (partner 2 µM)
Procedure, shortened: as §1

[5] = compound: O=C(CCCCCCNC(=O)c1cnc(N(c2ccccc2)c2ccccc2)nc1)NO [Ricolinostat] + COc1cccc2cc(-c3nc([C@H]4CC[C@H](C(=O)O)CC4)n4ncnc(N)c34)[nH]c12 [OSI-027] (partner 0.5 µM)
Procedure, shortened: as §1

| Cell Line | relative viability ([1]; first compound 0.08 µM) | relative viability ([1]; first compound 0.253 µM) | relative viability ([1]; first compound 0.8 µM) | relative viability ([1]; first compound 2.53 µM) | relative viability ([2]; first compound 0.08 µM) | relative viability ([2]; first compound 0.253 µM) | relative viability ([2]; first compound 0.8 µM) | relative viability ([2]; first compound 2.53 µM) | relative viability ([3]; first compound 0.08 µM) | relative viability ([3]; first compound 0.253 µM) | relative viability ([3]; first compound 0.8 µM) | relative viability ([3]; first compound 2.53 µM) | relative viability ([4]; first compound 0.08 µM) | relative viability ([4]; first compound 0.253 µM) | relative viability ([4]; first compound 0.8 µM) | relative viability ([4]; first compound 2.53 µM) | relative viability ([5]; first compound 0.08 µM) | relative viability ([5]; first compound 0.253 µM) | relative viability ([5]; first compound 0.8 µM) | relative viability ([5]; first compound 2.53 µM) |
| --- | --- | --- | --- | --- | --- | --- | --- | --- | --- | --- | --- | --- | --- | --- | --- | --- | --- | --- | --- | --- |
| NCI-H1651 | 0.843 | 0.84 | 0.88 | 0.816 | 0.658 | 0.744 | 0.633 | 0.436 | 0.852 | 0.812 | 0.746 | 0.776 | 0.885 | 0.997 | 0.917 | 0.884 | 0.607 | 0.651 | 0.603 | 0.618 |
| HCC-827 | 0.827 | 0.956 | 0.841 | 0.846 | 0.354 | 0.413 | 0.409 | 0.379 | 0.998 | 1.06 | 1.04 | 0.964 | 0.615 | 0.938 | 0.935 | 0.985 | 0.687 | 0.83 | 0.721 | 0.841 |
| ChaGo-K-1 | 1.13 | 1.08 | 1.05 | 0.997 | 0.201 | 0.234 | 0.224 | 0.226 | 0.895 | 0.912 | 0.861 | 0.86 |  |  |  |  | 0.656 | 0.606 | 0.539 | 0.471 |
| NCI-H522 |  |  |  |  | 0.616 | 0.565 | 0.54 | 0.641 |  |  |  |  |  |  |  |  | 0.822 | 0.736 | 0.665 | 0.69 |
| Calu-6 | 0.712 | 0.766 | 0.638 | 0.51 |  |  |  |  | 0.923 | 0.93 | 0.848 | 0.83 | 0.91 | 0.947 | 1.01 | 0.878 |  |  |  |  |
| NCI-H1703 | 0.63 | 1.02 | 0.891 | 0.612 |  |  |  |  |  | 0.398 | 0.318 | 0.513 |  | 0.316 | 0.401 | 0.377 |  |  |  |  |
| HCC-44 | 0.836 | 0.753 | 0.774 | 0.592 | 1.01 | 0.984 | 0.862 | 0.537 |  |  |  |  | 0.694 | 0.743 | 0.725 | 0.612 | 0.373 | 0.587 | 0.4 | 0.27 |
| NCI-H1395 |  |  |  |  |  | 0.835 | 0.741 | 0.671 |  | 0.954 | 1.07 | 1.06 |  | 1.12 | 1.13 | 1.26 |  | 0.651 | 0.613 | 0.663 |
| A549 | 0.757 | 0.714 | 0.581 | 0.291 |  |  |  |  | 0.859 | 0.99 | 0.928 | 0.917 | 0.537 | 0.805 | 0.663 | 0.631 |  |  |  |  |
| SW 900 |  |  |  |  | 0.596 | 0.509 | 0.393 | 0.459 | 0.733 | 0.883 | 0.886 | 0.989 |  |  |  |  | 0.462 | 0.808 | 0.562 | 0.535 |
| IA-LM |  | 0.763 | 0.784 | 0.578 |  |  |  |  | 0.959 | 1.01 | 1.09 | 0.932 | 0.616 | 0.819 | 0.623 | 0.363 |  |  |  |  |
